Values of other authors in patent publication US8324425B2, “Method for producing bicyclic γ-amino acid derivative” (Daiichi Sankyo Company, Limited, priority 2009, dated 2012).

Assays:
[1] = according to patients' own evaluation; Non Patent Literature 3
[2] = according to patients' own evaluation; Non Patent Literature 4

Row | SMILES | efficacy in the treatment of postherpetic neuralgia [1] | efficacy in the treatment of painful diabetic neuropathy [2]
1 | NCC1(CC(=O)O)CCCCC1 [gabapentine] | approximately 60% | –
2 | CC(C)C[C@H](CN)CC(=O)O [pregabalin] | – | approximately 50%
